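Each compound was tested at five concentrations against cells in 96-well plates for 48 hours. Abbreviation: GI50, concentration required for 50% inhibition of growth. TGI: total growth inhibition.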

Holding throughout (assay): NCI tumour cell line growth inhibition, 48 h
Assay [1] relates to OVCAR-8 ovarian.
Assay [2] has as its system SF-268 CNS.
Assay [3] deals with NCI-H522 lung.
In assay [4] the test system is KM12 colon.
The subject of assay [5] is HL-60(TB) leukemia.
In assay [6] the test system is SW-620 colon.
The subject of assay [7] is MALME-3M melanoma.
The subject of assay [8] is OVCAR-3 ovarian.
Assay [9] relates to UACC-62 melanoma.
The subject of assay [10] is TK-10 renal.

`CC(C)(CO)CNc1cc(=O)[nH]c(N)n1`: the TGI in assay [1], in assay [2], in assay [3], in [4], in [5] and in assay [6] was greater than 100 µM in each case. The TGI in assay [7], in [8] and in assay [9] was greater than 100 µM in each case.

Consider `Cc1c(-c2c(C)c3ccccc3n2S(=O)(=O)c2ccccc2)n(S(=O)(=O)c2ccccc2)c2ccccc12`, for which the TGI in [1], in [2], in assay [3], in assay [4], in [5] and in assay [6] was greater than 100 µM in each case. The TGI was 13.1 µM in [7], greater than 100 µM in assay [8], greater than 100 µM in assay [9] and greater than 100 µM in [10].

As for `COC(=O)CCCc1ccc2c(c1)CC1(C2)Cc2cc3c(cc2C1)CCCC3`, the TGI in [1] was greater than 100 µM; in [3], 84 µM; in assay [4] it was 80.6 µM; in [5], 29.2 µM; in [7], greater than 100 µM; in assay [8], greater than 100 µM. Also, the figures for the TGI in assay [9] and in assay [10] were 67 µM and greater than 100 µM, respectively.

On to `NCCC(N)C(=O)O` (configuration not stated), for which the TGI in [1], in [2], in assay [3], in assay [4], in assay [5] and in assay [6] was greater than 100 µM in each case. Also, the TGI in assay [7], in assay [8], in assay [9] and in [10] was greater than 100 µM in each case.

For the compound `O=C(Nc1ccccc1)O/N=C(/CBr)c1ccccc1`, the TGI was 44.1 µM in assay [1]; 47.7 µM in [2]; 29.3 µM in assay [3]; 44.2 µM in [4]; 32.5 µM in assay [5]; greater than 100 µM in assay [6]. Further, the TGI in [7] was found to be 33.9 µM; in assay [8], 37.9 µM; in [9], 26.7 µM; in assay [10], 33.8 µM.

On to `Cc1ccc(S(=O)(=O)N/C(=C\C=C\c2ccccc2)C(=O)C(C)(C)C)cc1`, for which the TGI in [1], in assay [2], in [3], in assay [4], in assay [5] and in [6] was greater than 100 µM throughout. In addition, the TGI in assay [7], in assay [8] and in assay [10] was greater than 100 µM throughout.

For the compound `CC(C)Oc1c(-c2c(OC(C)C)c(=O)c2=O)c(=O)c1=O`, the TGI in assay [1] is greater than 71.9 µM; in assay [2] it was greater than 75.9 µM; in assay [3] it was greater than 27.7 µM; in [4], greater than 59.6 µM; in assay [5], greater than 100 µM; in [6], greater than 62 µM. For the same compound, the TGI in [7] was 4 µM; in assay [9] it was greater than 61.5 µM; in assay [10], greater than 100 µM.

In the case of `CCNC(=O)Nc1cccc(C)n1`, the TGI in [1], in assay [2], in [3], in assay [4], in [5] and in [6] was greater than 100 µM each time. Moreover, the TGI in assay [7], in assay [8], in assay [9] and in assay [10] was greater than 100 µM throughout.

Turning to `Cc1ccc([N+](=O)[O-])cc1S(=O)(=O)Nc1ccc(C2=NN(c3ccc([N+](=O)[O-])cc3[N+](=O)[O-])C(c3ccccc3)C2)cc1` (configuration not stated), the TGI in assay [1] is 40.2 µM; in assay [2], 28 µM; in [3] it was 25.9 µM; in [4], 44.8 µM; in assay [5], 57.5 µM; in [6] it was greater than 100 µM. Also, the TGI in assay [7] was found to be 41.6 µM; in assay [8], 28.4 µM; in assay [10] it was 61.8 µM.

Regarding `CC(C)(CN)CN`, the TGI in assay [1], in assay [2], in assay [3], in [4], in [5] and in assay [6] was greater than 100 µM each time. Also, the TGI in [7], in assay [8], in [9] and in [10] was greater than 100 µM throughout.

In the case of `C=CC[C@H]1[C@@H](O[Si](C)(C)C(C)(C)C)[C@H](n2ccc(=O)[nH]c2=O)O[C@@H]1CO[Si](C)(C)C(C)(C)C`, the TGI in assay [1] is 3.93 µM; in assay [2], 8.64 µM; in [3], 3.93 µM; in assay [4], 3.49 µM; in [5] it was 2.59 µM; in assay [6], 3.39 µM. Moreover, the TGI in assay [7] was found to be 9.04 µM; in assay [8], 3.12 µM; in assay [9], 3.5 µM; in assay [10] it was 7.02 µM.

On to `CC(=O)C1CC(C)=CCC12C(=O)Nc1ccccc12` (configuration not stated), for which the TGI in assay [1], in [2], in assay [3], in assay [4], in assay [5] and in [6] was greater than 100 µM in each case. In addition, the TGI in assay [7], in [8], in assay [9] and in [10] was greater than 100 µM in each case.

As to `CC(=O)O/C=C\OC1CCCC1(c1ccccc1)c1ccccc1` (configuration not stated), the TGI in assay [1] was 7.3 µM; in [2], 10.3 µM; in [3], 23.3 µM; in assay [4], 12.9 µM; in [5] it was 2.89 µM; in assay [6], 4.72 µM. Besides, the TGI in assay [7] was 4.61 µM; in assay [8] it was 7.59 µM; in assay [9], 17.5 µM; in assay [10], 9.33 µM.

With `Cc1ccc(C(=O)N(C2CCCCC2)C2CCCCC2)cc1N=NN(C)C`, the TGI in [1] was 27.5 µM; in [2] it was 27.7 µM; in assay [3], 16.7 µM; in assay [4] it was 18.7 µM; in assay [5], 23.7 µM; in assay [6], 24.5 µM. In addition, the TGI in assay [7] turned out to be 31 µM; in assay [8], 19.2 µM; in assay [9] it was 21.6 µM; in [10] it was 24 µM.

Consider `COc1ccc2c3c1OC1CC(O)C=CC31CCN(C)C2` (configuration not stated), for which the TGI in assay [1] was greater than 15 µM; in [2], greater than 91.8 µM; in assay [3], greater than 150 µM; in assay [4], greater than 150 µM; in [5], greater than 150 µM; in [6], greater than 150 µM. Moreover, the TGI in [7], in assay [8] and in [9] was greater than 150 µM throughout.

Take `CCN(CC)Cc1nc2sc3c(c2c(=O)n1-c1ccccc1)CCCC3`: the TGI in assay [1] is 32.7 µM; in assay [2] it was 50.3 µM; in [3] it was 44.9 µM; in [4], greater than 100 µM; in [5] it was greater than 100 µM; in [6], 37.3 µM. Besides, the TGI was 45.5 µM in [7], 34.8 µM in [8], 30.4 µM in assay [9] and 30.9 µM in assay [10].

With `CCOC(=O)/C(=C\NCC(O)c1ccccc1)c1nc2ccccc2[nH]1` (configuration not stated), the TGI was 69.9 µM in assay [1]; 40.5 µM in assay [2]; 49 µM in assay [3]; 67.9 µM in [4]; 37.1 µM in [5]; greater than 100 µM in [6]. Moreover, the TGI in [7] is 52 µM; in assay [8] it was greater than 100 µM; in [9], 34.8 µM; in assay [10] it was greater than 100 µM.

For the compound `COc1cc2c(cc1C[N+](C)(C)CSc1ccccc1)-c1ccccc1CC2`, the TGI was 14.6 µM in assay [1]; 18.5 µM in assay [2]; 10.7 µM in assay [3]; 6.92 µM in assay [4]; 2.46 µM in assay [5]; greater than 41.3 µM in [6]. The TGI in assay [7] turned out to be 6.23 µM; in [8] it was 13 µM; in assay [9], 7.79 µM; in assay [10] it was 23.1 µM.

Regarding `CCCCOC(=O)CNC(=O)OCCCCC#CC#CCCCCOC(=O)NCC(=O)OCCCC`, the TGI in assay [1], in assay [2], in [3], in assay [4], in [5] and in assay [6] was greater than 100 µM each time. Besides, the TGI in assay [7], in assay [9] and in assay [10] was greater than 100 µM in each case.

As to `O=[N+]([O-])c1cccc(-c2csc(N=Nc3c(O)[nH]c4ccccc34)n2)c1`, the TGI in assay [1] was 30 µM; in assay [2] it was 38.4 µM; in [3], 36.6 µM; in assay [4], greater than 100 µM; in assay [5] it was 50.2 µM; in [6], greater than 100 µM. For the same compound, the TGI in assay [8] is greater than 100 µM; in assay [9], greater than 100 µM; in [10] it was 33.9 µM.

As for `CC(C)CCCC(C)[C@H]1CCC2[C@@H]3CCC4Cc5nc6c(nc5C[C@]4(C)C3CC[C@@]21C)CC1CC[C@@H]2C(C[C@@H](O)[C@@]3(C)C2C[C@@H]2OC4(CCC(C)CO4)C(C)[C@@H]23)[C@@]1(C)C6` (some centres not stated), the TGI in assay [1], in assay [2], in [3], in assay [4], in [5] and in [6] was greater than 100 µM in each case. In addition, the TGI in [8], in [9] and in assay [10] was greater than 100 µM each time.

`CC(C)(C)OC(=O)n1cc(C2CNC(=O)C23CCC(=O)N3Cc2ccccc2)c2ccccc21` (configuration not stated): the TGI in assay [2] is greater than 100 µM; in assay [3], 35 µM; in assay [4], 78.3 µM; in assay [5], 82.5 µM; in assay [6] it was greater than 100 µM; in [7], 42.8 µM. The TGI in assay [8] was 46.8 µM; in assay [9], 38.7 µM; in assay [10], 44.4 µM.

For `Cc1ccc2[nH]cc(-c3nc(-c4c[nH]c5ncccc45)cs3)c2c1`, the GI50 in assay [1], in assay [2], in assay [3], in assay [4], in assay [5] and in assay [6] was greater than 100 µM in each case. In addition, the GI50 in assay [8], in [9] and in [10] was greater than 100 µM in each case. Besides, the TGI in assay [1], in [2], in assay [3], in [4], in assay [5] and in assay [6] was greater than 100 µM each time. For the same compound, the TGI in assay [8], in [9] and in assay [10] was greater than 100 µM throughout.

In the case of `CCOC(C[Se]CC(OCC)OCC)OCC`, the TGI in [1] was greater than 100 µM; in [3], greater than 100 µM; in assay [4], greater than 100 µM; in assay [5] it was 76.5 µM; in [6] it was greater than 100 µM; in assay [7], greater than 100 µM. Also, the TGI in assay [8], in assay [9] and in assay [10] was greater than 100 µM throughout.

Turning to `CC1(C)OC2OC(COC(=O)C=[N+]=[N-])C3OC(C)(C)OC3C2O1` (configuration not stated), the TGI in [2], in assay [3], in assay [4], in assay [5], in assay [6] and in assay [7] was greater than 100 µM each time. Further, the TGI in assay [8], in assay [9] and in assay [10] was greater than 100 µM throughout.

Consider `CCCCCc1cc(OC(=O)c2c(O)cc(OC)cc2CCCCC)cc(O)c1C(=O)O`, for which the TGI in assay [1] was 36.3 µM; in [2], 30 µM; in assay [3] it was 28.2 µM; in [4], 34 µM; in [5] it was 60.2 µM; in assay [6] it was 36 µM. Also, the figures for the TGI in assay [7], in [9] and in [10] were 26.1 µM, 28.9 µM and 36.6 µM, respectively.

For the compound `O=C1C(Br)=CC2([N+](=O)[O-])CCNc3c(O)c4c5c(c3C2=C1Br)=NCCC=5C=N4` (configuration not stated), the TGI in assay [1] came out at 2.38 µM; in [2] it was 6.27 µM; in [3], 0.214 µM; in [4], 14.8 µM; in assay [5], 0.454 µM; in assay [6] it was 4 µM. The TGI in assay [8] was found to be 0.784 µM; in assay [9], 3.14 µM.

Source of the values: PubChem BioAssay (NCI).
